Values quoted from earlier work in article PMC9880028 (Drug Design, Development and Therapy, 2023).

System: WNK1
Conditions: read-out: IC50 (WNK1); only WNK1 inhibitor published when the screen was conducted; ref US Patent application US 2008/0286809 A1, Dario Alessi

IC50: 200 µM
SMILES: Cc1cc(O)c2c(=O)c3c(O)cc(O)c4c5c(O)cc(O)c6c(=O)c7c(O)cc(C)c8c1c2c(c34)c(c78)c65 [hypericin]
